Data published in US11213516B2, “Intravaginally applicable devices comprising antiviral compounds” (AICURIS ANTI-INFECTIVE CURES GMBH, priority 2017, dated 2022).
Several values for one entry are separate records, joined by “and”; a condition that tells them apart may be missing. Identical values can stand only once. Marks after values point to notes of the source that are not given here.

What was measured:
Format in all cases: in vivo, Cynomolgus monkeys
[1] = Plasma concentration after intravaginal administration of vaginal ring; details: for Plasma concentration of Pritelivir free base: individual animals; for Plasma concentration of Pritelivir free base, Mean: group mean
Description: (§1) The study was performed in four single dose phases with 28-day sampling period after Phases 1 and 2 (7-day washout period between doses). Vaginal rings were investigated for Pritelivir free base and Pritelivir mesylate salt at two dose levels per formulation. The test items were applied as vaginal ring in Phases 1 and 2 to female monkeys. The study design is below in the Table 3.
Venous blood samples were taken from all animals at the following times in relation to dosing.
• Blood sample site Femoral site • Blood volume 1.0 mL • Anticoagulant For phase 1 samples, Day 1-3 only, blood was sampled into standard HLS vials containing lithium heparin and 20 μL aqueous phosphoric acid (3.5 molar). Thereafter, blood was collected into tubes containing lithium heparin only. Plasma was obtained from all samples by centrifugation. Samples were appropriately labeled and stored deep frozen (−20° C. or below) until analysis • Total no. of blood samples 350 Vaginal Fluid Sampling
(§2) After suitable dilution, plasma and vaginal samples were analyzed on UPLC system Waters Acquity UPLC-HSS PFP column with 1.8 μm particles (100×2.1 mm) by gradient elution using 0.1% formic acid and methanol containing 0.1% formic acid. For detection, a time-of-flight mass spectrometer (Xevo GS-2 QTOF, Waters) was used operating in positive ionization mode (MSe analysis). The samples were analyzed for their content of Pritelivir free base.
The study was designed to obtain information on the time-course of unchanged test compound concentrations in plasma and vaginal fluid/tissue, following single intravaginal administration of rings to female Cynomolgus monkeys. Objectives of this study were to determine the safety and tolerance of Pritelivir loaded rings, as well as systemic and local exposure (plasma, vaginal fluid and vaginal and vulval tissue, respectively). Local exposures were compared with in vitro efficacy data of Pritelivir to get an idea on initial pharmacokinetic/pharmacodynamic (PK/PD) parameters for vaginal rings, i.e. to assess the potential ability of a Pritelivir loaded ring to suppress viral replication in the target tissue. Table 9 gives an overview on the EC50 values of Pritelivir on HSV-1 and HSV-2 Data source: Field, H. J., et al., Baseline sensitivity of HSV-1 and HSV-2 clinical isolates and defined acyclovir-resistant strains to the helicase-primase inhibitor pritelivir. Antiviral Res, 2013. 100(2): p. 297-9. EC50=50% effective concentration.

[2] = Vaginal tissue (biopsy) concentration after intravaginal administration of vaginal ring; details: 6-fold higher dose; Day 28
Description: as §1
(§3) Vulval and vaginal biopsies were taken from all animals at the following times in relation to dosing.
(§4) For the sampling biopsies were taken with a suitable biopsy instrument. Biopsy samples were snap frozen on dry ice following collection and stored deep frozen (−20° C. or below) until analysis.
as §2
Vaginal and vulval biopsies were taken 28 Days after administration of intravaginal rings. As biopsies were not weighed prior extraction, weights were estimated based on data from similar investigations using the same settings for biopsies. […]

[3] = Vulval tissue (biopsy) concentration after intravaginal administration of vaginal ring; details: ring 40 mg free base; Phase 1; Day 28; per animal; biopsy weight estimated
Description: as §1, §3, §4, §2
Vaginal and vulval biopsies were taken 28 Days after administration of intravaginal rings. As biopsies were not weighed prior extraction, weights were estimated based on data from similar investigations using the same settings for biopsies. From this study minimum, maximum, and mean biopsy weight was used for the calculation. These biopsy weights ranged from 0.7 to 6.3 mg, mean 2.95 mg. For all calculations it was assumed that 1 kg tissue is equal to 1 L water.

[4] = ring 40 mg free base, Phase 1 Group 1, 2 d
[5] = ring 40 mg free base, Phase 1 Group 1, 3 d
[6] = ring 240 mg free base, Phase 2 Group 1, 2 d
[7] = ring 240 mg free base, Phase 2 Group 1, 3 d
[8] = ring 240 mg free base, Phase 2 Group 1, 4 d
[9] = ring 240 mg free base, Phase 2 Group 1, 7 d
[10] = ring 240 mg free base, Phase 2 Group 1, 10 d
[11] = ring 240 mg free base, Phase 2 Group 1, 14 d
[12] = ring 240 mg free base, Phase 2 Group 1, 17 d
[13] = ring 240 mg free base, Phase 2 Group 1, 21 d
[14] = ring 240 mg free base, Phase 2 Group 1, 24 d
[15] = ring 240 mg free base, Phase 2 Group 1, 28 d

## Cc1nc(N(C)C(=O)Cc2ccc(-c3ccccn3)cc2)sc1S(N)(=O)=O [Pritelivir free base]
[1]; ring 40 mg free base, Phase 1 Group 1, 0.333 d
  Plasma concentration of Pritelivir free base: 8.54 ^ μg/L and 10.9 ^ μg/L and 3.97 ^ μg/L
[1]; [4]
  Plasma concentration of Pritelivir free base, Mean: 10.2 ^ μg/L
  Plasma concentration of Pritelivir free base: 4.07 ^ μg/L and 11.6 ^ μg/L and 18.3 ^ μg/L and 6.75 ^ μg/L
[1]; [5]
  Plasma concentration of Pritelivir free base, Mean: 9.20 ^ μg/L
  Plasma concentration of Pritelivir free base: 4.80 ^ μg/L and 7.29 ^ μg/L and 18.4 ^ μg/L and 6.30 ^ μg/L
[1]; ring 40 mg free base, Phase 1 Group 1, 4 d
  Plasma concentration of Pritelivir free base: 3.41 ^a μg/L and 5.30 ^ μg/L and 3.51 ^a μg/L
[1]; ring 40 mg free base, Phase 1 Group 1, 7 d
  Plasma concentration of Pritelivir free base: 3.22 ^a μg/L and 3.86 ^a μg/L and 4.00 ^ μg/L
[1]; ring 40 mg free base, Phase 1 Group 1, 10 d
  Plasma concentration of Pritelivir free base: 3.02 ^a μg/L and 3.74 ^a μg/L and 2.75 ^a μg/L
[1]; ring 40 mg free base, Phase 1 Group 1, 14 d
  Plasma concentration of Pritelivir free base: 2.83 ^a μg/L and 4.32 ^ μg/L and 3.29 ^a μg/L
[1]; ring 40 mg free base, Phase 1 Group 1, 17 d
  Plasma concentration of Pritelivir free base: 4.08 ^ μg/L and 3.48 ^a μg/L and 2.59 ^a μg/L
[1]; ring 40 mg free base, Phase 1 Group 1, 21 d
  Plasma concentration of Pritelivir free base: 3.08 ^a μg/L and 2.67 ^a μg/L
[1]; ring 40 mg free base, Phase 1 Group 1, 24 d
  Plasma concentration of Pritelivir free base: 2.77 ^a μg/L
[1]; ring 40 mg free base, Phase 1 Group 1, 28 d
  Plasma concentration of Pritelivir free base: 2.76 ^a μg/L and 3.00 ^a μg/L
[1]; ring 240 mg free base, Phase 2 Group 1, 0.0417 d
  Plasma concentration of Pritelivir free base: 2.96 ^a μg/L
[1]; ring 240 mg free base, Phase 2 Group 1, 0.0833 d
  Plasma concentration of Pritelivir free base: 2.95 ^a μg/L
[1]; ring 240 mg free base, Phase 2 Group 1, 0.167 d
  Plasma concentration of Pritelivir free base: 2.82 ^a μg/L and 8.45 μg/L and 4.56 μg/L and 2.49 ^a μg/L
[1]; ring 240 mg free base, Phase 2 Group 1, 0.333 d
  Plasma concentration of Pritelivir free base: 3.78 ^a μg/L and 10.1 μg/L and 5.80 μg/L and 3.79 ^a μg/L
[1]; [6]
  Plasma concentration of Pritelivir free base, Mean: 14.3 ^ μg/L
  Plasma concentration of Pritelivir free base: 10.1 ^ μg/L and 23.0 μg/L and 9.89 μg/L
[1]; [7]
  Plasma concentration of Pritelivir free base, Mean: 17.0 ^ μg/L
  Plasma concentration of Pritelivir free base: 15.6 ^ μg/L and 15.2 μg/L and 10.2 ^ μg/L
[1]; [8]
  Plasma concentration of Pritelivir free base, Mean: 17.0 ^ μg/L
  Plasma concentration of Pritelivir free base: 13.9 ^ μg/L and 16.1 μg/L and 12.2 ^ μg/L
[1]; [9]
  Plasma concentration of Pritelivir free base, Mean: 13.1 ^ μg/L
  Plasma concentration of Pritelivir free base: 11.8 ^ μg/L and 14.2 μg/L and 10.3 ^ μg/L
[1]; [10]
  Plasma concentration of Pritelivir free base, Mean: 8.80 ^ μg/L
  Plasma concentration of Pritelivir free base: 8.27 ^ μg/L and 9.04 μg/L and 8.43 ^ μg/L
[1]; [11]
  Plasma concentration of Pritelivir free base, Mean: 8.70 ^ μg/L
  Plasma concentration of Pritelivir free base: 6.33 ^ μg/L and 8.33 μg/L and 10.6 ^ μg/L
[1]; [12]
  Plasma concentration of Pritelivir free base, Mean: 8.67 ^ μg/L
  Plasma concentration of Pritelivir free base: 5.58 ^ μg/L and 9.84 μg/L and 8.41 ^ μg/L
[1]; [13]
  Plasma concentration of Pritelivir free base, Mean: 6.97 ^ μg/L
  Plasma concentration of Pritelivir free base: 6.02 ^ μg/L and 8.37 μg/L and 5.71 ^ μg/L
[1]; [14]
  Plasma concentration of Pritelivir free base, Mean: 8.97 ^ μg/L
  Plasma concentration of Pritelivir free base: 4.96 ^ μg/L and 11.3 μg/L and 9.86 ^ μg/L
[1]; [15]
  Plasma concentration of Pritelivir free base, Mean: 8.79 ^ μg/L
  Plasma concentration of Pritelivir free base: 5.57 ^ μg/L and 9.32 μg/L and 7.55 ^ μg/L
[2]
  Increase of vaginal tissue concentrations, Phase 2 vs Phase 1: 2 fold
[3]
  Vulval tissue concentration of Pritelivir free base, Max: <2.0 µg/g and 0.134 µg/g and 0.742 µg/g
  Vulval tissue concentration of Pritelivir free base, Mean: <2.0 µg/g and 0.0318 µg/g and 0.176 µg/g
  Vulval tissue concentration of Pritelivir free base, Min: <2.0 µg/g and 0.0149 µg/g and 0.0825 µg/g
